The text below walks through data of ChEMBL document CHEMBL4840346, “Amakusamine from a Psammocinia sp. Sponge: Isolation, Synthesis, and SAR Study on the Inhibition of RANKL-Induced Formation of Multinuclear Osteoclasts” (J Nat Prod, 2021).

Series [1] has as its system RAW264.7. The experiment in a line: Inhibition of RANKL-induced osteoclastogenesis in mouse RAW264.7 cells assessed as reduction in number of TRAP-positive multinuclear cells measured after 4 days by TRAP staining based assay. It is filed as functional, cell-based.
Series [2] concerns RAW264.7. The experiment in a line: Cytotoxicity against mouse RAW264.7 cells at 50 uM by MTT assay. To be noted: raw264.7, 50 µM. It is filed as cell-based. A general note: Tetrazolium dyes change colour on reduction, which living cells bring about.
Series [3] deals with RAW264.7. Briefly: Inhibition of RANKL-induced osteoclastogenesis in mouse RAW264.7 cells assessed as reduction in number of TRAP-positive multinuclear cells at 50 uM measured after 4 days by TRAP staining based assay. To be noted: for inhibition: time 4.0 day. The format is functional.
Series [4] relates to RAW264.7. Briefly: Inhibition of RANKL-induced osteoclastogenesis in mouse RAW264.7 cells assessed as reduction in NFATc1 mRNA expression measured after 24 hrs by RT-PCR analysis. The format is functional, cell-based. To be noted: dose 30-50 µM.
In series [5] the test system is RAW264.7. Briefly: Cytotoxicity against mouse RAW264.7 cells at 25 uM by MTT assay. The format is cell-based. To be noted: raw264.7, 25 µM.

The structures appear in SMILES notation. Activity calls are given as the source filed them. No cut-off for these calls is given here.

What is called IC50 is the concentration at which inhibition is half-maximal. Consider `CCCCCCCC(=O)n1ccc2c(Br)c3c(c(Br)c21)OCO3`, for which the IC50 with RAW264.7 [1] (Mus musculus, RAW264.7, 96 h) came out at 11.1 µM. Further, the Activity result in the series on RAW264.7 [2] is reported as “Non-Toxic”.
In general, inhibition refers to the change of the read-out against control, counted positive when it falls. Consider `c1cc2cc3c(cc2[nH]1)OCO3`, for which the inhibition result in the series with RAW264.7 [3] is “inactive”. The Activity result in the series with RAW264.7 [2] was “Non-Toxic”.
Consider `Brc1c2c(c(Br)c3[nH]ccc13)OCO2`, for which the inhibition entry in the series on RAW264.7 [4] and in the series with RAW264.7 [1] (time 4.0 day) was “Dose-Dependent Effect” in each case. For the same molecule, the IC50 in the series with RAW264.7 [1] (Mus musculus, RAW264.7, 96 h) stood at 10.5 µM; in the series with RAW264.7 [1] (raw264.7) it was 9.4 µM. Besides, in the series with RAW264.7 [2], the Activity result is recorded as “Non-Toxic”.
`Brc1c2c(cc3[nH]ccc13)OCO2`: the IC50 in the series on RAW264.7 [1] (Mus musculus, RAW264.7, 96 h) was found to be 16.8 µM. Further, the Activity entry in the series on RAW264.7 [2] is listed as “Non-Toxic”.
Turning to `Brc1c2c(c(Br)c3c1OCO3)NCC2`, the IC50 in the series with RAW264.7 [1] (Mus musculus, RAW264.7, 96 h) was 25.6 µM. For the same molecule, the Activity result with RAW264.7 [2] is on record as “Non-Toxic”.
On to `NCCc1c[nH]c2c(Br)c3c(c(Br)c12)OCO3`, for which the IC50 in the series with RAW264.7 [1] (Mus musculus, RAW264.7, 96 h) worked out at 5.9 µM. Further, the Activity result with RAW264.7 [5] is “Toxic”.
Turning to `CCCC(=O)n1ccc2c(Br)c3c(c(Br)c21)OCO3`, the IC50 in the series on RAW264.7 [1] (Mus musculus, RAW264.7, 96 h) came to 7.9 µM. For the same molecule, the Activity entry in the series with RAW264.7 [2] is given as “Non-Toxic”.
For `COc1c(OC)c(Br)c2[nH]ccc2c1Br`, in that order: 6.3 µM and “Non-Toxic”.
Consider `O=C(c1ccccc1)n1ccc2c(Br)c3c(c(Br)c21)OCO3`, for which the inhibition result in the series on RAW264.7 [3] is “inactive”. Also, the Activity result in the series on RAW264.7 [2] was “Non-Toxic”.
For `O=Cc1c[nH]c2c(Br)c3c(c(Br)c12)OCO3`, in the series on RAW264.7 [1] (Mus musculus, RAW264.7, 96 h), the IC50 was found to be 13.9 µM. In addition, the Activity result in the series with RAW264.7 [2] was “Non-Toxic”.
Take `CCCCCCCCCCCCCC(=O)n1ccc2c(Br)c3c(c(Br)c21)OCO3`: the inhibition result in the series with RAW264.7 [3] was “inactive”. In the series with RAW264.7 [2], the Activity entry is listed as “Non-Toxic”.
As for `Clc1c2c(c(Cl)c3[nH]ccc13)OCO2`, the IC50 in the series with RAW264.7 [1] (Mus musculus, RAW264.7, 96 h) was 40 µM. In addition, the Activity result in the series on RAW264.7 [2] is recorded as “Non-Toxic”.
For the molecule `Brc1c2c(cc3cc[nH]c13)OCO2`, the IC50 with RAW264.7 [1] (Mus musculus, RAW264.7, 96 h) turned out to be 35.4 µM. For the same molecule, the Activity entry in the series on RAW264.7 [2] is “Non-Toxic”.
Turning to `Brc1[nH]c2cc3c(cc2c1Br)OCO3`, the inhibition at 50 µM with RAW264.7 [3] (RAW264.7, 96 h, time 4 day) was 40%. In addition, the Activity result in the series with RAW264.7 [2] is on record as “Non-Toxic”.
Regarding `CC(=O)n1ccc2c(Br)c3c(c(Br)c21)OCO3`, the IC50 in the series on RAW264.7 [1] (Mus musculus, RAW264.7, 96 h) came out at 11.7 µM. Besides, the Activity entry with RAW264.7 [2] is given as “Non-Toxic”.
On the same counts, the results for `OCc1c[nH]c2c(Br)c3c(c(Br)c12)OCO3` are 10 µM and “Non-Toxic”.
For `Cc1c[nH]c2c(Br)c3c(c(Br)c12)OCO3`, in that order: 8.1 µM and “Non-Toxic”.
